Legend:
[1] = system: MRSA (sensitive strain) co-seeded with CRMRSA (resistant strain); test: Co-seeded agar plate assay (Assay Protocol A), MRSA sensitive / CRMRSA resistant strain; format: cell-based, Staphylococcus aureus; conditions: co-seeding ratio 100:1, 10 μL in DMSO, 37° C., 12 to 18 hours
Procedure: (§1) Each of a pair of bacterial strains, one sensitive and one resistant to a particular antibacterial agent, was grown by inoculating 25 mL of LB broth (i.e., 10 g of tryptone, 5 g of yeast extract, and 10 g NaCl per liter of water) with 1 to 5 colonies in an Erlenmeyer flask, and then holding the mixture overnight at a temperature of 37° C. while agitating the mixture via rotary shaking (200 rpm). Each batch was allowed to cool to room temperature (about 25° C.). Following OD measurements at λ=600 nm to ensure that both strains have grown to similar densities (i.e., a variation of 10% or less), a sample from the batch of the “sensitive” strain was diluted 10-fold in LB growth medium, and a sample of the “resistant” strain was diluted 500-fold or more to provide a final ratio (i.e., co-seeding ratio) of 50 or more sensitive cells to 1 resistant cell. A 750 μL sample of each of the diluted strains was then mixed into 20 mL of molten agar/growth medium agar (melt temperature=48° C.) (KD Medical's Cat. No. BLF-7070) and poured into rectangular 8.5×12.5 cm Omnitray dishes (Nalge NUNC Intl. Cat No. 242811). Wells were cast by applying custom-made pins (about 3 mm in diameter and 5 mm deep; Nalge NUNC Intl.) into the surface of the molten mixture (48 or 96 pins arrayed over the 8.5×12.5 cm surface) and then allowing the mixture to harden to provide an assay plate. […]

[2] = system: MSSA (sensitive strain) co-seeded with MRSA (resistant strain); test: Co-seeded agar plate assay (Assay Protocol A), MSSA sensitive / MRSA resistant strain; format: cell-based, Staphylococcus aureus; conditions: co-seeding ratio 500:1, 10 μL in DMSO, 37° C., 12 to 18 hours
Procedure: Each of a pair of bacterial strains, one sensitive and one resistant to a particular antibacterial agent, was grown by inoculating 25 mL of LB broth (i.e., 10 g of tryptone, 5 g of yeast extract, and 10 g NaCl per liter of water) with 1 to 5 colonies in an Erlenmeyer flask, and then holding the mixture overnight at a temperature of 37° C. while agitating the mixture via rotary shaking (200 rpm). Each batch was allowed to cool to room temperature (about 25° C.). Following OD measurements at λ=600 nm to ensure that both strains have grown to similar densities (i.e., a variation of 10% or less), a sample from the batch of the “sensitive” strain was diluted 10-fold in LB growth medium, and a sample of the “resistant” strain was diluted 500-fold or more to provide a final ratio (i.e., co-seeding ratio) of 50 or more sensitive cells to 1 resistant cell. A 750 μL sample of each of the diluted strains was then mixed into 20 mL of molten agar/growth medium agar (melt temperature=48° C.) (KD Medical's Cat. No. BLF-7070) and poured into rectangular 8.5×12.5 cm Omnitray dishes (Nalge NUNC Intl. Cat No. 242811). Wells were cast by applying custom-made pins (about 3 mm in diameter and 5 mm deep; Nalge NUNC Intl.) into the surface of the molten mixture (48 or 96 pins arrayed over the 8.5×12.5 cm surface) and then allowing the mixture to harden to provide an assay plate. Test samples dissolved in DMSO were added to the wells, after which the assay plate was incubated at 37° C. for a time sufficient to allow visual detection of cell colonies (i.e., 12 to 18 hours). The plates were then examined for zones of growth and inhibition under ambient light.
The tests set forth in Table 1 were conducted in the manner described in Assay Protocol A, except that in the case of the streptomycin-resistant strain, the inoculated liquid growth medium also contained 25 ug/mL of streptomycin in order to ensure that resistance was not lost during growth.

[3] = system: ATCC 9637 (sensitive strain) co-seeded with MB941 (resistant strain); test: Co-seeded agar plate assay (Assay Protocol A), ATCC 9637 sensitive / MB941 resistant strain; format: cell-based, E. coli; conditions: co-seeding ratio 1000:1, 10 μL in DMSO, 37° C., 12 to 18 hours
Procedure: as §1

[4] = system: S-eEF2 (sensitive strain) co-seeded with HS-eEF2 (resistant strain); test: Co-seeded agar plate assay (Assay Protocol B), S-eEF2 sensitive / HS-eEF2 resistant yeast strain; format: cell-based, Saccharomyces cerevisiae; conditions: co-seeding ratio 50:1, DMSO solution, overnight at 29° C.
Procedure: Assay Protocol B The S. cerevisiae yeast strains, S-eEF2 and HS-eEF2, were each grown overnight from a single colony in 5 mL YPAD (i.e., 1% yeast extract, 2% peptone, 0.004% adenine sulfate, and 2% glucose) in an Erlenmeyer flask at 29° C. with shaking on a roller drum. The sensitive strain S-eEF2 was diluted with additional YPAD to give a final absorbance at λ=600 nm of 0.01 (control =YPAD), and the resistant strain HS-eEF2 was diluted to an absorbance at λ=600 nm of 0.0002. Each strain (5 mL) was added to a glass test tube containing 25 mL of molten YPAD agar equilibrated at 50° C. The mixture was then stirred briefly and poured onto sterile disposable 86×128-mm plastic dishes (NUNC Cat. No. 242811). The dishes were cooled for 5 minutes at room temperature, dried in a hood, and then stored for no more than 2 days until ready for treatment with test substances. Test substances were dissolved in the appropriate solvent and a suitable portion of the solution was spotted on the co-seeded plates. The plates were incubated overnight at 29° C., and then inspected visually for the appearance of zones of growth and inhibition, and particularly for the appearance of resistant colonies capable of growing in the presence of the test substances.
The tests set forth in Table 2 were conducted in the manner described in Assay Protocol B.

[5] = system: DH5 (sensitive strain) co-seeded with pKS-DH5 (resistant strain); test: Co-seeded agar plate assay (Assay Protocol A), DH5 sensitive / pKS-DH5 resistant strain; format: cell-based, Escherichia coli; conditions: Run 6, FIG. 3; co-seeding ratio 500:1; 100 mg/mL, 10 μL in DMSO; 37° C., 12 to 18 hours
Procedure: as §1

O=C(N[C@H](CO)[C@H](O)c1ccc([N+](=O)[O-])cc1)C(Cl)Cl [chloramphenicol]
zone of growth inhibition (appearance, resistant colonies) ([1]; Run 5, FIG. 2B, 1 mg/mL): zone of no growth containing isolated colonies of resistant bacteria | zone of growth inhibition (appearance, resistant colonies) ([2]; Run 1, FIG. 1A, 100 μg/mL): visually contains no resistant colonies

CO[C@@]1(NC(=O)Cc2cccs2)C(=O)N2C(C(=O)O)=C(COC(N)=O)CS[C@@H]21 [cefoxitin]
zone of growth inhibition (appearance, resistant colonies) ([2]; Run 3, FIG. 1C, 500 μg/mL): a multitude of resistant colonies throughout the inhibition zone

[H]/N=C(/N)N[C@H]1[C@H](O)[C@@H](O)[C@H](O[C@@H]2O[C@@H](C)[C@](O)(C=O)[C@H]2O[C@@H]2O[C@@H](CO)[C@H](O)[C@@H](O)[C@@H]2NC)[C@@H](N/C(N)=N\[H])[C@@H]1O [streptomycin]
zone of growth inhibition (appearance, resistant colonies) ([3]; Run 8, FIG. 4B, 500 μg/mL): zone of no growth containing isolated colonies of resistant bacteria | zone of growth inhibition (appearance, resistant colonies) ([2]; Run 2, FIG. 1B, 1 mg/mL): a few colonies at or near the border of the inhibition zone

CO[C@H]1[C@@H](O)[C@H](O)[C@H](OC[C@@]23C[C@@H]4[C@H](C)CC[C@H]4[C@@]4(C=O)CC2C=C(C(C)C)[C@@]34C(=O)O)O[C@@H]1C [sordarin]
zone of growth inhibition (appearance, resistant colonies) ([4]; Run 10, FIG. 5B, 2 μg spotted): zone of growth inhibition in which resistant colonies are present

CC1(C)S[C@@H]2[C@H](NC(=O)[C@H](N)c3ccccc3)C(=O)N2[C@H]1C(=O)O [ampicillin]
zone of growth inhibition (appearance, resistant colonies) [5]: isolated resistant colonies within a zone that otherwise exhibits no growth

O=C(O)c1cn(C2CC2)c2cc(N3CCNCC3)c(F)cc2c1=O [ciproflaxin, ciprofloxacin]
zone of growth inhibition (appearance, resistant colonies) ([1]; Run 4, FIG. 2A, 50 μg/mL): clear zone of no growth

CC(=O)O[C@@H]1C[C@]23C4=CC[C@@]5(C)[C@H](C(=O)O)[C@@](C)([C@H](C)C(C)C)CC[C@]5(C)[C@H]4CC[C@H]2[C@@](C)(COC3O)[C@H]1O[C@@H]1O[C@H](CO)[C@@H](O)[C@H](O)[C@H]1O (stereo partly shown) [enfumafungin]
zone of growth inhibition (appearance, resistant colonies) ([4]; Run 9, FIG. 5A, 0.2 μg spotted): visually clear zone exhibiting no growth of either the sensitive or the resistant strain

CN(C)[C@@H]1C(O)=C(C(N)=O)C(=O)[C@@]2(O)C(O)=C3C(=O)c4c(O)cccc4[C@@](C)(O)[C@H]3C[C@@H]12 [tetracylin, tetracyclin]
zone of growth inhibition (appearance, resistant colonies) ([3]; Run 7, FIG. 4A, 1 mg/mL): clear zone of no growth

— US20060286624A1, “Method for identifying selective growth inhibitors” (priority 2003, published 2006)
